Entries after “also recorded” stand apart in the source; their conditions may differ.
Experiments:
[1] = system: NMDA receptors (NR2A- and NR2B-containing); assay: Whole-cell currents evoked by NMDA in cultured cortical neurons; type: cell-based, rat; conditions: for percentage blockade of NMDA-induced currents, applied alone: NVP-AAM077 0.4 μM or Ro25-6981 0.5 μM bath applied alone, 10 μM glycine, 5 μM strychnine, -60 mV; for percentage blockade of NMDA-induced currents, applied alone / percentage blockade of NMDA-induced currents, applied after blockade by the other antagonist: 50 μM NMDA; for percentage blockade of NMDA-induced currents, applied after blockade by the other antagonist: sequential application, NVP-AAM077 0.4 μM, Ro25-6981 0.5 μM
[2] = system: middle cerebral artery occlusion (MCAo); assay: MCAo focal ischemic stroke model, pretreatment; type: in vivo, rat; conditions: for neurological function (behavioral tests) / infarct area: i.v. 30 min before 1-h MCAo; for neurological function (behavioral tests): 24 h after onset; for infarct area: NVP-AAM077 2.4 mg/kg, Ro 25-6981 6 mg/kg, 24 h
Method: This aspect of the invention was also illustrated in vivo using a rat focal ischemic stroke model—middle cerebral artery occlusion (MCAo) (Aarts et al., 2002; Bederson et al., 1986). We first infused NVP-AAM077 (2.4 mg/kg), Ro 25-6981 (6 mg/kg (Loschmann et. al., 2004)) or vehicle (saline) intravenously in the rats 30 min prior to stroke onset. The animals were then subjected to a 1-h transient ischemic stroke induced by MCAo. This relatively short duration of ischemia was chosen to unmask the potential neuroprotective effects mediated by NR2A-containing receptors activated during the stroke challenge. Neurological score and cerebral infarction were examined 24 h after the MCAo onset. […] Together, these observations indicate that both NR2A- and NR2B-containing NMDA receptor subtypes are activated during stroke, exerting opposing effects on ischemic brain damage.
(§1) Transient cerebral focal ischemia was produced by middle cerebral artery occlusion (MCAo) as described (Aarts et al., 2002; Bederson et al., 1986; Longa et al., 1989). Briefly, male Sprague-Dawley rats (Charles River Laboratories) weighing ˜300 g were anesthetized and MCAo was achieved by introducing a 3-0 monofilament suture into the MCA via the internal carotid artery. Body temperature was maintained at 37.0±0.5° C., and blood pressure and blood gases were monitored during the experiments. Animals were sacrificed 24 h following MCAo onset. Cerebral infarction was analyzed using brain sections stained with hematoxylin and eosin (H & E) or 2,3,5-triphenyltetrazolium chloride (TTC). 10 min before the animals were sacrificed, two tests, the postural reflex test to examine upper body posture (Bederson et al., 1986) and the forelimb placing test to examine sensorimotor integration in forelimb placing responses to visual, tactile, and proprioceptive stimuli (De Ryck et al., 1989), were performed to grade neurological function on a scale of 0 to 12 (0=normal, 12=worst). In the pretreatment study, a single bolus of drugs (NR2A-specific antagonist NVP-AAM077 (2.4 mg/kg) or NR2B specific antagonist Ro 25-6981 (6 mg/kg) or vehicle (saline)) was infused intravenously 30 min before a 1-h MCAo. For post-treatment experiments, animals were subjected to a 1.5-h MCAo and drug treatments (glycine, 800 mg/kg; NVP-AAM077 and Ro 25-6981 at the same doses as in the pretreatment study) were then given via intraperitoneal injection (i.p.) 3 h after reperfusion (4.5 h after the onset of MCAo).

cortical neurons [3] = assay: Glycine pretreatment before NMDA-induced neuronal apoptosis; type: cell-based, rat; conditions: co-applied with glycine; NVP-AAM077 0.4 μM, Ro25-6981 0.5 μM
Method: (§2) Mature neurons (11-14 DIV) were used for experiments.
(§3) To visualize injured neurons, Hoechst-33342 (10 μg/ml) was added to the culture medium 20 h after treatments and incubated for 45 min at 37 °C. Images were taken with a Leica DMIRE2 fluorescence microscope. Quantitative assessment of neuronal apoptosis was performed 20 h following treatments using a Cell Death Detection […] Kit (Roche Applied Science). Absorbance readings were determined using a spectrophotometric microplate reader. Data analyses were carried out according to the manufacturer's instructions. Data are expressed as the difference in apoptosis relative to control and are expressed as a percentage.

cortical neurons [4] = assay: NMDA-mediated excitotoxicity: neuronal apoptosis in cortical cultures; type: cell-based, rat; conditions: 50 μM NMDA plus 10 μM glycine 20 min, assayed 20 h after; APV 50 μM, Ro25-6981 0.5 μM, NVP-AAM077 0.4 μM
Method: as §2, §3

synaptic NMDA receptors = assay: mEPSC recording, NMDA receptor-mediated component; type: cell-based, rat
[5] = system: middle cerebral artery occlusion (MCAo); assay: MCAo focal ischemic stroke model, post-ischemic treatment; type: in vivo, rat; conditions: for effect of co-administration on the glycine effect (infarct volume reduction): co-administered with glycine 800 mg/kg 4.5 h after stroke onset
Source text: In some clinical settings, it is desirable to implement therapy after the onset of neuronal injury, such as stroke or other ischemic events.
as §1
The activating effect on NR2A-containing receptors was mimicked with the application of the NMDA receptor co-agonist glycine in the presence of an […] NR2B antagonist. Glycine by itself potentiates the function of NMDA receptors that are activated by endogenously released glutamate from presynaptic terminals both in vitro and in vivo (Johnson et al., 1987; Lu et al., 2001; De et al., 2000).

SMILES | percentage blockade of NMDA-induced currents, applied alone [1] | reduction in the percentage of NMDA current inhibition by Ro25-6981 following NVP-AAM077 blockade ([1]; alone vs after NVP-AAM077 0.4 μM) | percentage blockade of NMDA-induced currents, applied after blockade by the other antagonist [1] | decrease of total infarct volume compared with saline-treated animals ([2]; 6 mg/kg i.v. 30 min before 1-h MCAo, 24 h after MCAo onset) | neurological function (behavioral tests) [2] | infarct area [2] | effect on the neuroprotective effect of glycine pretreatment (cortical neurons [3]) | effect on NMDA-induced neuronal apoptosis/damage (cortical neurons [4]) | effect on slow NMDA receptor-mediated component of mEPSCs (synaptic NMDA receptors; -60 mV, zero added Mg2+, APV 50 μM, Ro 25-6981 0.5 μM) | NR2B-containing receptor-mediated (Ro 25-6981-sensitive) component of synaptic NMDA currents (synaptic NMDA receptors; Ro 25-6981 0.5 μM, n=5) | effect of co-administration on the glycine effect (infarct volume reduction) [5] | neuroprotection / total infarct volume compared with MCAo alone ([5]; given 3 h after 1.5-h MCAo (4.5 h after stroke onset), MK801 1 mg/Kg, glycine 800 mg/Kg, Ro 25-6981 6 mg/Kg) | increase in total infarct volume compared with saline-treated animals ([2]; 2.4 mg/kg i.v. 30 min before 1-h MCAo, 24 h after MCAo onset) | effect on the remainder (non-NR2B) of the synaptic NMDA currents (synaptic NMDA receptors; NVP-AAM077 0.4 μM, n=5) | effect of co-administration on the glycine effect (infarct volume reduction) ([5]; listed as NVP-AAM066)
C[C@@H](CN1CCC(Cc2ccccc2)CC1)[C@@H](O)c1ccc(O)cc1 (relative stereo) [Ro 25-6981, [R-(R*,S*)]-α-(4-Hydroxyphenyl)-β-methyl-4-(phenylmethyl)-1-piperidinepropanol] | 34.6%±1.8% | 5.6% | 29.0%±3.3% | 67.8±4.3% | significant protective effect | decreased | not by affected | prevented NMDA-induced neuronal apoptosis | significantly reduced | 32.4±3.6% | resistant | did not provide any noticeable neuroprotection; also recorded: ineffectiveness | – | – | –
C[C@H](NC(c1cccc2[nH]c(=O)c(=O)[nH]c12)P(=O)(O)O)c1ccc(Br)cc1 (stereo partly shown) [NVP-AAM077] | 42.9%±5.9% | – | 43.4%±12.4% | – | trend toward poorer neurological function | increased | prevented | significantly enhanced | – | – | abolished; also recorded: prevented | – | 67.0±17.9% | largely eliminated | abolished the neuroprotection offered by glycine

— patent US20130045991A1, “NEUROPROTECTIVE MODULATION OF NMDA RECEPTOR SUBTYPE ACTIVITIES” (THE UNIVERSITY OF BRITISH COLUMBIA, priority 2005, published 2013)
